Assays:
[1] = system: HCT116 MTAP-deleted cells; assay: Cell viability assay (CellTiter-Glo, 7 days), HCT116 MTAP-deleted; settings: Homo sapiens, HCT-116, 168 h
[2] = system: SDMA signal (PRMT5 inhibition) in HCT116 MTAP-deleted cells; assay: Symmetric di-methyl arginine image-based high content screen assay (SDMA assay), HCT116 MTAP-deleted; assay type: cell-based; settings: SDMA assay; for EC50: Homo sapiens, HCT-116, 72 h, 3 days of treatment, cell line not given, taken as HCT116 MTAP-deleted, read-out: EC50 (SDMA assay)
Outline: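 Read-out: per-cell mean SDMA immunofluorescence (Alexa Fluor 488 secondary), cells segmented by DAPI on a high-content imager. Compound exposure in HCT116 MTAP-deleted cells lasted until fixation on Day 3; overnight 4° C primary anti-SDMA antibody staining.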

[3] = taken as HCT116 WT versus MTAP-deleted
[4] = taken as HCT116 WT vs MTAP-deleted

| Structure (SMILES) | CC50 [1] [nM] | EC50 [2] [nM] | EC50 selectivity (SDMA assay) [2, 3] | EC50 selectivity (SDMA assay) [2, 4] |
| --- | --- | --- | --- | --- |
| CN(C(=O)c1cccnn1)N(Cc1ccc(C(F)(F)F)cn1)C(=O)c1ccc2nc(N)c3cnn(C)c3c2c1 [Example 184, 14-amino-N′,1-dimethyl-N′-(pyridazine-3-carbonyl)-N-((5-(trifluoromethyl)pyridin-2-yl)methyl)-1H-pyrazolo[4,3-c]quinoline-8-carbohydrazide] | > 1000 | > 5 | 195 |  |
| CN(C(=O)C1CC1)N(Cc1nc2cc(Cl)ccc2o1)C(=O)c1ccc2nc(N)c3cnn(C)c3c2c1 [Example 259, 4-amino-N-((5-chlorobenzo[d]oxazol-2-yl)methyl)-N′-(cyclopropanecarbonyl)-N′,1-dimethyl-1H-pyrazolo[4,3-c]quinoline-8-carbohydrazide] | < 100 | 1 to 5 | 182 |  |
| CN(C(=O)C1CC1)N(Cc1nc2cc(C(F)(F)F)ccc2n1C)C(=O)c1ccc2nc(N)c3cnn(C)c3c2c1 [Example 437, 4-amino-N′-(cyclopropanecarbonyl)-N′,1-dimethyl-N-((1-methyl-5-(trifluoromethyl)-1H-benzo[d]imidazol-2-yl)methyl)-1H-pyrazolo[4,3-c]quinoline-8-carbohydrazide] | < 100 | 1 to 5 |  | 256 |
| CN(C(=O)N1CC(F)C1)N(Cc1ccc(C(F)(F)F)cn1)C(=O)c1ccc2nc(N)c3cnn(C)c3c2c1 [Example 156, 4-amino-N′-(3-fluoroazetidine-1-carbonyl)-N′,1-dimethyl-N-((5-(trifluoromethyl)pyridin-2-yl)methyl)-1H-pyrazolo[4,3-c]quinoline-8-carbohydrazide] | < 100 | < 1 | 34 |  |
| CN(C(=O)N1CC2CC2C1)N(Cc1ccc(C(F)(F)F)cn1)C(=O)c1ccc2nc(N)c3cnn(C)c3c2c1 (stereo not drawn) [Example 127, 4-amino-N′-(3-azabicyclo[3.1.0]hexane-3-carbonyl)-N′,1-dimethyl-N-((5-(trifluoromethyl)pyridin-2-yl)methyl)-1H-pyrazolo[4,3-c]quinoline-8-carbohydrazide] | < 100 | 1 to 5 | 228 |  |
| CN1CCN(N(Cc2ccc(C(F)(F)F)cn2)C(=O)c2ccc3nc(N)c4cnn(C)c4c3c2)CC1 [Example 58, 4-amino-1-methyl-N-(4-methylpiperazin-1-yl)-N-((5-(trifluoromethyl)pyridin-2-yl)methyl)-1H-pyrazolo[4,3-c]quinoline-8-carboxamide] | 100 to 1000 | 1 to 5 | 126 |  |
| Cn1c(CN(C(=O)c2ccc3nc(N)c4c(c3c2)COC4)N2CCCC2=O)nc2ccccc21 [Example 81, 4-Amino-N-[(1-methylbenzimidazol-2-yl)methyl]-N-(2-oxopyrrolidin-1-yl)-1,3-dihydrofuro[3,4-c]quinoline-8-carboxamide] | < 100 | 1 to 5 | 101 |  |
| CN(c1ccsn1)N(Cc1ccc(C(F)(F)F)cn1)C(=O)c1ccc2nc(N)c3cnn(C)c3c2c1 [Example 361] | < 100 | < 1 | 34 |  |
| Cc1nc2ccc(CN(C(=O)c3ccc4nc(N)c5cnn(C)c5c4c3)N(C)C(=O)C3CC3)cc2s1 [Example 275, 4-amino-N′-(cyclopropanecarbonyl)-N′,1-dimethyl-N-((2-methylbenzo[d]thiazol-6-yl)methyl)-1H-pyrazolo[4,3-c]quinoline-8-carbohydrazide] | < 100 | < 1 | 129 |  |
| Cn1ncc2c(N)nc3cc(Cl)c(C(=O)N(Cc4ccc(C(F)(F)F)cn4)N4CCCCC4=O)cc3c21 [Example 148, 4-amino-7-chloro-1-methyl-N-(2-oxopiperidin-1-yl)-N-((5-(trifluoromethyl)pyridin-2-yl)methyl)-1H-pyrazolo[4,3-c]quinoline-8-carboxamide] | < 100 | 1 to 5 | 66 |  |
| CN1CCN(N(Cc2ccc(C(F)(F)F)cc2F)C(=O)c2ccc3nc(N)c4cnn(C)c4c3c2)C1=O [Example 7, 4-amino-N-(2-fluoro-4-(trifluoromethyl)benzyl)-1-methyl-N-(3-methyl-2-oxoimidazolidin-1-yl)-1H-pyrazolo[4,3-c]quinoline-8-carboxamide] | < 100 | < 1 | 62 |  |
| CN(C(=O)c1cscn1)N(Cc1ccc(C(F)(F)F)cn1)C(=O)c1ccc2nc(N)c3cnn(C)c3c2c1 [Example 106, N′-(4-amino-1-methyl-1H-pyrazolo[4,3-c]quinoline-8-carbonyl)-N-methyl-N′-((5-(trifluoromethyl)pyridin-2-yl)methyl)thiazole-4-carbohydrazide] | < 100 | < 1 | 16 |  |
| [2H]C([2H])(c1ccc(C(F)(F)F)cn1)N(C(=O)c1ccc2nc(N)c3cnn(C([2H])([2H])[2H])c3c2c1)N(C)C(=O)C1CC1 [Example 254, 4-amino-N′-(cyclopropanecarbonyl)-N′-methyl-1-(methyl-d3)-N-((5-(trifluoromethyl)pyridin-2-yl)methyl-d2)-1H-pyrazolo[4,3-c]quinoline-8-carbohydrazide] | < 100 | < 1 | 266 |  |
| Cn1ncc2c(N)nc3ccc(C(=O)N(Cc4ccc(C(F)(F)F)cc4F)N4CCOCC4)cc3c21 [Example 397, 4-amino-N-[[2-fluoro-4-(trifluoromethyl)phenyl]methyl]-1-methyl-N-morpholino-pyrazolo[4,3-c]quinoline-8-carboxamide] | < 100 | 1 to 5 |  | 78 |
| CC(=O)N(C)N(Cc1ccc(F)c(F)c1F)C(=O)c1ccc2nc(N)c3cnn(C)c3c2c1 [Example 48, N′-acetyl-4-amino-N′,1-dimethyl-N-[(2,3,4-trifluorophenyl)methyl]pyrazolo[4,3-c]quinoline-8-carbohydrazide] | < 100 | 1 to 5 | 326 |  |
| CC(=O)N(C)N(Cc1nc2cc(C(F)(F)F)ccc2s1)C(=O)c1ccc2nc(N)c3cnn(C)c3c2c1 [Example 1] | < 100 | < 1 | 122 |  |
| CCOC(=O)NN(Cc1ccc(C(F)(F)F)cn1)C(=O)c1ccc2nc(N)c3cnn(C)c3c2c1 [Example 45, ethyl N-[(4-amino-1-methyl-pyrazolo[4,3-c]quinoline-8-carbonyl)-[[5-(trifluoromethyl)-2-pyridyl]methyl]amino]carbamate] | < 100 | < 1 | 63 |  |
| CC(=O)N(C)N(Cc1ccc(C#CC2CCOC2)cc1F)C(=O)c1ccc2nc(N)c3cnn(C)c3c2c1 (stereo not drawn) [Example 388, N′-acetyl-4-amino-N-[[2-fluoro-4-(2-tetrahydrofuran-3-ylethynyl)phenyl]methyl]-N′,1-dimethyl-pyrazolo[4,3-c]quinoline-8-carbohydrazide] | < 100 | < 1 | 40 |  |
| CN(C(=O)C1CC1)N(Cc1cc(F)c(F)cc1F)C(=O)c1ccc2nc(N)c3cnn(C)c3c2c1 [Example 272, 4-amino-N′-(cyclopropanecarbonyl)-N′,1-dimethyl-N-(2,4,5-trifluorobenzyl)-1H-pyrazolo[4,3-c]quinoline-8-carbohydrazide] | < 100 | < 1 | 466 |  |
